Test results reported in patent publication US9247759B2, “Identification of human T2R receptors that respond to bitter compounds that elicit the bitter taste in compositions, and the use thereof in assays to identify compounds that inhibit (block) bitter taste in compositions and use thereof” (SENOMYX, INC., priority 2007, dated 2016).
Like-named read-outs stand apart in the source and are kept apart here.

Target: hT2R8 (Homo sapiens (Human), UniProt Q9NYW2)
Assay: hT2R8 antagonist high-throughput FLIPR assay, stable cell line with G16g44, agonist andrographolide
Format: cell-based
In short: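 Antagonist screen: compounds co-applied with agonist andrographolide at 200 μM, a dose giving 70–80% of maximal hT2R8 activation. Fluorescence measured by FLIPR in a stable HEK293 line expressing both hT2R8 and the promiscuous G16g44 protein.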

[1] = table after Example 10-97, read-out: hT2R8 IC50
[2] = read-out: IC50 on hT2R8 bitter receptor
[3] = table after Example 12-37, read-out: hT2R8 IC50

Sequence of hT2R8 (Q9NYW2 whole entry): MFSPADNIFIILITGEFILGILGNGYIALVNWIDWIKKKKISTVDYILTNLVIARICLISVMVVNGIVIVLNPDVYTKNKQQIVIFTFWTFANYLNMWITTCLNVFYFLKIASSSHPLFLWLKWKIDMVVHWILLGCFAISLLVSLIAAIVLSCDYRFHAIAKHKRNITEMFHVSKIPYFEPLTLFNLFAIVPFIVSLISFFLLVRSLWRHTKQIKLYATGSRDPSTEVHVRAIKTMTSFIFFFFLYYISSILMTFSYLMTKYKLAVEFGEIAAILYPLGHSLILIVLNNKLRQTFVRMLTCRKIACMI

Structure (SMILES)	IC50 (Table A, read-out: hT2R8 IC50) [µM]	IC50 [2] [µM]	also measured
COc1cccc(CN(Cc2cccc(OC)c2OC)c2cnn(Cc3c(C)noc3C)c2)c1OC [Example 4-64, N,N-bis(2,3-dimethoxybenzyl)-1-((3,5-dimethylisoxazol-4-yl)methyl)-1H-pyrazol-4-amine]	12.6		
Cc1noc(C)c1Cn1cc(N2C(=O)CN(Cc3cccc(CN(C)C)c3)C2=O)cn1 [Example 10-37, 1-(3-((dimethylamino)methyl)benzyl)-3-(1-((3,5-dimethylisoxazol-4-yl)methyl)-1H-pyrazol-4-yl)imidazolidine-2,4-dione]			IC50 [1]: 1.22 µM; IC50 (unit uM, read-out: IC50 on hT2R08 bitter receptor): 1.2 µM
Cc1noc(C)c1Cn1cc(NC(=O)c2cccc3nccnc23)cn1 [Example 4-76, N-(1-((3,5-dimethylisoxazol-4-yl)methyl)-1H-pyrazol-4-yl)quinoxaline-5-carboxamide]	1.7		
COc1cc(C(=O)Nc2cnn(Cc3c(C)noc3C)c2)cc2c1OC(C)O2 (stereo not shown) [Example 4-94, N-(1-((3,5-dimethylisoxazol-4-yl)methyl)-1H-pyrazol-4-yl)-7-methoxy-2-methylbenzo[d][1,3]dioxole-5-carboxamide]		0.7	
Cc1cccc(C(=O)Nc2cnn(Cc3c(C)noc3C)c2)n1 [Example 4-48, N-(1-((3,5-dimethylisoxazol-4-yl)methyl)-1H-pyrazol-4-yl)-6-methylpicolinamide]	1.95		
COc1ccccc1CC(=O)Nc1cnn(Cc2c(C)noc2C)c1 [Example 4-35, N-(1-((3,5-dimethylisoxazol-4-yl)methyl)-1H-pyrazol-4-yl)-2-(2-methoxyphenyl)acetamide]	1.16		
Cc1noc(C)c1Cn1cc(N2C(=O)N(Cc3cccc(O)n3)C(C)(C)C2=O)cn1 [Example 12-72, 3-(1-((3,5-dimethylisoxazol-4-yl)methyl)-1H-pyrazol-4-yl)-1-((6-hydroxypyridin-2-yl)methyl)-5,5-dimethylimidazolidine-2,4-dione]			IC50 [3]: 0.44 µM
Cc1noc(C)c1Cn1cc(N2C(=O)N(Cc3ccccn3)C(C)(C)C2=O)cn1 [Example 12-61, 3-(1-((3,5-dimethylisoxazol-4-yl)methyl)-1H-pyrazol-4-yl)-5,5-dimethyl-1-(pyridin-2-ylmethyl)imidazolidine-2,4-dione]			IC50 [3]: 0.26 µM
COC(C(=O)Nc1cnn(Cc2c(C)noc2C)c1)c1ccccc1 (stereo not shown) [Example 4-43, N-(1-((3,5-dimethylisoxazol-4-yl)methyl)-1H-pyrazol-4-yl)-2-methoxy-2-phenylacetamide]	3.43		
Cc1noc(C)c1Cn1cc(NC(=O)c2ccc3c(c2)OCCO3)cn1 [Example 4-88, N-(1-((3,5-dimethylisoxazol-4-yl)methyl)-1H-pyrazol-4-yl)-2,3-dihydrobenzo[b][1,4]dioxine-6-carboxamide]	0.4		
Cc1noc(C)c1Cn1cc(NC(=O)c2cccc(Cl)c2)cn1 [Example 4-80, 3-chloro-N-(1-((3,5-dimethylisoxazol-4-yl)methyl)-1H-pyrazol-4-yl)benzamide]	0.9		
COC(=O)c1cccc(CN2C(=O)N(c3cnn(Cc4c(C)noc4C)c3)C(=O)C2(C)C)c1 [Example 12-55]			IC50 [3]: 0.22 µM
COc1ccccc1C(=O)Nc1cnn(Cc2c(C)noc2C)c1 [Example 4-19, N-(1-((3,5-dimethylisoxazol-4-yl)methyl)-1H-pyrazol-4-yl)-2-methoxybenzamide]	0.39		
Cc1noc(C)c1Cn1cc(N2C(=O)NC(C)(C)C2=O)cn1 [Example 12-16a, 3-(1-((3,5-dimethylisoxazol-4-yl)methyl)-1H-pyrazol-4-yl)-5,5-dimethylimidazolidine-2,4-dione]		2.27	
COc1ccc(C(=O)Nc2cnn(Cc3c(C)noc3C)c2)cc1OC [Example 4-21, N-(1-((3,5-dimethylisoxazol-4-yl)methyl)-1H-pyrazol-4-yl)-3,4-dimethoxybenzamide]	0.56		
CCc1nc2cc(C(=O)Nc3cnn(Cc4c(C)noc4C)c3)ccc2o1 [Example 4-81, N-(1-((3,5-dimethylisoxazol-4-yl)methyl)-1H-pyrazol-4-yl)-2-ethylbenzo[d]oxazole-5-carboxamide]	0.8		
COc1cccc(CC(=O)Nc2cnn(Cc3c(C)noc3C)c2)c1OC [Example 4-31, 2-(2,3-dimethoxyphenyl)-N-(1-((3,5-dimethylisoxazol-4-yl)methyl)-1H-pyrazol-4-yl)acetamide]	0.8		
COc1ccc(C(=O)Nc2cnn(Cc3c(C)noc3C)c2)cc1 [Example 4-17, N-(1-((3,5-dimethylisoxazol-4-yl)methyl)-1H-pyrazol-4-yl)-4-methoxybenzamide]	0.26		
Cc1noc(C)c1Cn1cc(NC(=O)c2ccc3ocnc3c2)cn1 [Example 4-72, N-(1-((3,5-dimethylisoxazol-4-yl)methyl)-1H-pyrazol-4-yl)benzo[d]oxazole-5-carboxamide]	2.6		
Cc1noc(C)c1Cn1cc(N2C(=O)N(Cc3ccc4c(c3)OCCO4)C(C)(C)C2=O)cn1 [Example 12-62, 1-((2,3-dihydrobenzo[b][1,4]dioxin-6-yl)methyl)-3-(1-((3,5-dimethylisoxazol-4-yl)methyl)-1H-pyrazol-4-yl)-5,5-dimethylimidazolidine-2,4-dione]			IC50 [3]: 0.27 µM
Cc1noc(C)c1Cn1cc(NC(=O)Cc2ccoc2)cn1 [Example 4-58, N-(1-((3,5-dimethylisoxazol-4-yl)methyl)-1H-pyrazol-4-yl)-2-(furan-3-yl)acetamide]	8.66		
Cc1noc(C)c1Cn1cc(N2CNCN(Cc3ccccc3)C2=O)cn1 [Example 9-6, 1-benzyl-3-(1-((3,5-dimethylisoxazol-4-yl)methyl)-1H-pyrazol-4-yl)-1,3,5-triazinan-2-one]		5.84	IC50 [1]: 6.03 µM
Cc1noc(C)c1Cn1cc(N2C(=O)N(CCc3ccc(F)cc3)C(C)(C)C2=O)cn1 [Example 12-69, 3-(1-((3,5-dimethylisoxazol-4-yl)methyl)-1H-pyrazol-4-yl)-1-(4-fluorophenethyl)-5,5-dimethylimidazolidine-2,4-dione]			IC50 [3]: 0.33 µM
Cc1nc2ccc(C(=O)Nc3cnn(Cc4c(C)noc4C)c3)cc2o1 [Example 4-83, N-(1-((3,5-dimethylisoxazol-4-yl)methyl)-1H-pyrazol-4-yl)-2-methylbenzo[d]oxazole-6-carboxamide]	0.7		
Cc1cccc(C(=O)Nc2cnn(Cc3c(C)noc3C)c2)c1 [Example 4-28, N-(1-((3,5-dimethylisoxazol-4-yl)methyl)-1H-pyrazol-4-yl)-3-methylbenzamide]	0.57		
Cc1noc(C)c1Cn1cc(NCc2ccccc2C#N)cn1 [Example 9-2, 2-((1-((3,5-dimethylisoxazol-4-yl)methyl)-1H-pyrazol-4-ylamino)methyl)benzonitrile]		> 30	
Cc1noc(C)c1Cn1cc(NS(=O)(=O)c2ccccc2C#N)cn1 [Example 4-99, 2-cyano-N-(1-((3,5-dimethylisoxazol-4-yl)methyl)-1H-pyrazol-4-yl)benzenesulfonamide]	1.36		
Cc1noc(C)c1Cn1cc(N(C)C(=O)C(C)c2ccccc2)cn1 (stereo not shown) [Example 4-97, N-(1-((3,5-dimethylisoxazol-4-yl)methyl)-1H-pyrazol-4-yl)-N-methyl-2-phenylpropanamide]	2.13		
COc1cccc(CN2C(=O)N(c3cnn(Cc4c(C)noc4C)c3)C(=O)C2(C)C)n1 [Example 12-40, 3-(1-((3,5-dimethylisoxazol-4-yl)methyl)-1H-pyrazol-4-yl)-1-((6-methoxypyridin-2-yl)methyl)-5,5-dimethylimidazolidine-2,4-dione]			IC50 [3]: 0.08 µM

Further lines, with some results ahead:

IC50 (Table A, read-out: hT2R8 IC50) [µM]	IC50 [2] [µM]	Structure (SMILES)	also measured
	0.8	Cc1noc(C)c1Cn1cc(N2C(=O)N(C)C(C)(C)C2=O)cn1 [Example 10-52, 3-(1-((3,5-dimethylisoxazol-4-yl)methyl)-1H-pyrazol-4-yl)-1,5,5-trimethylimidazolidine-2,4-dione]	IC50 [1]: 0.81 µM
	0.02	Cc1noc(C)c1Cn1cc(N2C(=O)[C@@H](C)N(Cc3cccc(O)c3)C2=O)cn1 [Example 12-7, (R)-3-(1-((3,5-dimethylisoxazol-4-yl)methyl)-1H-pyrazol-4-yl)-1-(3-hydroxybenzyl)-5-methylimidazolidine-2,4-dione]	
	0.28	Cc1noc(C)c1Cn1cc(N2C(=O)CN(CC3CCCCC3)C2=O)cn1 [Example 10-74, 1-(cyclohexylmethyl)-3-(1-((3,5-dimethylisoxazol-4-yl)methyl)-1H-pyrazol-4-yl)imidazolidine-2,4-dione]	IC50 [1]: 0.276 µM
	0.09	COC(=O)c1cccc(CN2CC(=O)N(c3cnn(Cc4c(C)noc4C)c3)C2=O)c1 [Example 10-7, methyl 3-((3-(1-((3,5-dimethylisoxazol-4-yl)methyl)-1H-pyrazol-4-yl)-2,4-dioxoimidazolidin-1-yl)methyl)benzoate]	IC50 [1]: 0.102 µM
	0.35	Cc1noc(C)c1Cn1cc(N2C(=O)N(CCOc3ccccc3)C(C)(C)C2=O)cn1 [Example 12-27, 3-(1-((3,5-dimethylisoxazol-4-yl)methyl)-1H-pyrazol-4-yl)-5,5-dimethyl-1-(2-phenoxyethyl)imidazolidine-2,4-dione]	
	0.01	Cc1noc(C)c1Cn1cc(N2C(=O)[C@H](C)N(Cc3ccccc3)C2=O)cn1 [Example 12-11, (S)-1-benzyl-3-(1-((3,5-dimethylisoxazol-4-yl)methyl)-1H-pyrazol-4-yl)-5-methylimidazolidine-2,4-dione]	
	1.4	Cc1noc(C)c1Cn1cc(N2C(=O)CN(CC3CCCO3)C2=O)cn1 (stereo not shown) [Example 10-73]	IC50 [1]: 1.36 µM
	0.08	COc1ccccc1CN1C(=O)N(c2cnn(Cc3c(C)noc3C)c2)C(=O)C1(C)C [Example 12-31, 3-(1-((3,5-dimethylisoxazol-4-yl)methyl)-1H-pyrazol-4-yl)-1-(2-methoxybenzyl)-5,5-dimethylimidazolidine-2,4-dione]	
